Like-named read-outs stand apart in the source and are kept apart here.
Columns and labels:
[1] = biological target: T1, PRMT5/MEP50 complex (Homo sapiens, UniProt O14744); test: PRMT5:MEP50 HotSpot Assay (full-length histone H2A substrate, plus and minus MTA); format: biochemical; details: IC50 + 2 μM MTA, in the presence of 2 μM MTA
T1 construct: purchased Reaction Biology Corporation
In short: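 Tritiated product on full-length recombinant H2A was counted by scintillation after the stopped reaction was captured on filter paper. Substrate is histone H2A; conditions include plus and minus MTA.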

[2] = tested on: HCT116 homozygous MTAP knockout cells; test: Proliferation assay (CellTiter-Glo, 10 days) in HCT116 homozygous MTAP knockout cells; format: cell-based; details: CellTiter-Glo after 10 days of treatment, read-out: Proliferation IC50 (nM) HCT116 MTAP_KO
In short: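 CellTiter-Glo viability read on day 11 gives a 10-day IC50. Dosing began one day after seeding, with a 1:10 split into fresh drug-containing medium on day 6. Cells are HCT116 lacking both MTAP alleles via CRISPR/Cas9, run alongside the parental line.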

[3] = tested on: PRMT5-dependent Symmetric Di-methyl Arginine signal in HCT116 homozygous MTAP Knockout cells; test: SYM11 In-Cell Western in HCT116 homozygous MTAP knockout cells; format: cell-based; details: 4 days of treatment, SYM11/DRAQ5 ratio as percent of DMSO control, read-out: In-cell-Western (SYM11) IC50 (nM) HCT116 MTAP_KO
Procedure: HCT116 cells were genetically engineered to knock out the function of both MTAP alleles using a CRISPR/Cas9 system and an sgRNA targeting the MTAP gene. Following Cas9/MTAP sgRNA transduction, clones were screened to confirm that each allele of the MTAP gene had been inactivated (i.e., homozygous MTAP knock out) creating an MTAP-deficient cell.
Control samples were analyzed in parallel.
Briefly, on Day 0, 2,000 HCT116 parental or HCT116 homozygous MTAP knockout cells were seeded in 96 well plates in McCoy's 5A supplemented with 10% fetal bovine serum and pen/strep and the cells were incubated overnight at 37° C. plus 5% CO2. The following day, cells were treated with DMSO vehicle control or a dose response of PRMT5 inhibitors, and incubated at 37° C. plus 5% CO^2 for four days.
After 4 days of treatment, the cells were fixed by adding 50 μl of 4% paraformaldehyde solution to each well and the cells were incubated for 20 min at room temperature. The paraformaldehyde solution was removed, 150 μl of ice-cold methanol was added and the plate was placed −20° C. for 10 minutes. The methanol was removed, 150 μl of Odyssey Blocking buffer+0.05% Tween20 was added and the plate was incubated at room temperature with shaking for one hour.
The primary SYM11 antibody solution was removed by aspiration and the wells were washed three consecutive times with phosphate buffered saline containing 0.1% Tween-20 (PBST).
The secondary antibody solution was removed by aspiration and the wells were washed three consecutive times with PBST.
The SYM11 signal and the DRAQ5 signal were quantified using a Li-Cor Odyssey machine reading at […], respectively. The SYM11/DRAQ5 ratio was used to calculate the inhibition of Symmetric Dimethyl Arginine as percent of DMSO control.

T1 sequence (O14744 2-637 limits assumed): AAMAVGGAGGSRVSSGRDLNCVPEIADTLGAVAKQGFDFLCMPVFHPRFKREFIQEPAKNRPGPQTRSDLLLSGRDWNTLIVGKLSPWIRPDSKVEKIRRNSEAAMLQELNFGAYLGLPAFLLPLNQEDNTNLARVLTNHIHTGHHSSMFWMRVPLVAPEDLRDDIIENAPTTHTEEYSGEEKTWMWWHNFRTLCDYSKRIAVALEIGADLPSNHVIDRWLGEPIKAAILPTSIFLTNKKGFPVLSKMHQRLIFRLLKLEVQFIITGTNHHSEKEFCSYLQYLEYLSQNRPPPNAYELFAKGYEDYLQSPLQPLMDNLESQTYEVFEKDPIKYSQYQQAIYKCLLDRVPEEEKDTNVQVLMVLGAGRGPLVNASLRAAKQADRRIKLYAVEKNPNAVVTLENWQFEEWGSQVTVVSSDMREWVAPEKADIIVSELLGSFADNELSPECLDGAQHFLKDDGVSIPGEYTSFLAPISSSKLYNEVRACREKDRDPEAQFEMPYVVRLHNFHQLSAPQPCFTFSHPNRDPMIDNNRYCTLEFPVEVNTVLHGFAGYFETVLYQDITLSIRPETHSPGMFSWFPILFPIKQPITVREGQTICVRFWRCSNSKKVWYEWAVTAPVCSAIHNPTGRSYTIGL
T1 sequence (Q9BQA1 2-342 partner limits assumed): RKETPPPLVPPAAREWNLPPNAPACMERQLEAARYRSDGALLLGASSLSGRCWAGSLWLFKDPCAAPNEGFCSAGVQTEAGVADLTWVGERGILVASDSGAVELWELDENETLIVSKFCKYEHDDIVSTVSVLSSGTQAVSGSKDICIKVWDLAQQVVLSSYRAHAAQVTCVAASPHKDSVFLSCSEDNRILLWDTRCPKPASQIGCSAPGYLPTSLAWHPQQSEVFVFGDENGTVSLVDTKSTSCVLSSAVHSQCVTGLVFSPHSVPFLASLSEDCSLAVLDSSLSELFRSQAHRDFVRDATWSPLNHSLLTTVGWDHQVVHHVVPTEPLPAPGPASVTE

Row | IC50 [1] [µM] | IC50 [2] [nM] | IC50 ([3]; Homo sapiens, HCT-116, 96 h) [nM] | IC50 [3] [nM] | IC50 ([2]; Homo sapiens, HCT-116, 240 h) [nM] | Compound
1 | 0.304 | 51 | 11 | – | – | Cc1cc(-c2cnn(C)c2-c2c(F)ccc(OC3CC3)c2C#N)cc2c(CN)n[nH]c(=O)c12 (atropisomer, axis not shown; (P)) [Example 16-47, (P)-2-[4-[4-(aminomethyl)-8-methyl-1-oxo-2H-phthalazin-6-yl]-2-methyl-pyrazol-3-yl]-6-(cyclopropoxy)-3-fluoro-benzonitrile]
2 | 0.0136 | 6 | – | 6 | – | Cc1cc(-c2cnn(C)c2-c2c(F)cc3ccccc3c2C#N)cc2c(CN)n[nH]c(=O)c12 (single isomer, unassigned) [Example 16-16, (M)-2-[4-[4-(aminomethyl)-8-methyl-1-oxo-2H-phthalazin-6-yl]-2-methyl-pyrazol-3-yl]-3-fluoro-naphthalene-1-carbonitrile]
3 | 0.095 | 33 | – | 17 | – | Cc1cc(-c2cnn(C)c2-c2c(F)cc3ccccc3c2C#N)cc2c(CN)n[nH]c(=O)c12 (single isomer, unassigned) [Example 16-15, (P)-2-[4-[4-(aminomethyl)-8-methyl-1-oxo-2H-phthalazin-6-yl]-2-methyl-pyrazol-3-yl]-3-fluoro-naphthalene-1-carbonitrile]
4 | 0.248 | 307 | – | 93 | – | Cn1ncc(-c2ccc3c(=O)[nH]nc(CN)c3c2)c1-c1c(F)c(Cl)c2ccccc2c1C#N (single isomer, unassigned) [Example 16-9, (P)-2-[4-[4-(aminomethyl)-1-oxo-2H-phthalazin-6-yl]-2-methyl-pyrazol-3-yl]-4-chloro-3-fluoro-naphthalene-1-carbonitrile]
5 | 0.994 | 2850 | – | 272 | – | Cn1ncc(-c2ccc3c(=O)[nH]nc(CN)c3c2)c1-c1c(C#N)cc2ccccc2c1Cl (single isomer, unassigned) [Example 16-5]
6 | 0.64 | 290 | – | 246 | – | Cc1c(F)c(-c2c(-c3cc(C)c4c(=O)[nH]nc(CN)c4c3)cnn2C)c(C#N)c2ccccc12 (single isomer, unassigned) [Example 16-41, (P)-2-[4-[4-(aminomethyl)-8-methyl-1-oxo-2H-phthalazin-6-yl]-2-methyl-pyrazol-3-yl]-3-fluoro-4-methyl-naphthalene-1-carbonitrile]
7 | 0.26 | 77 | – | 57 | – | Cn1ncc(-c2cc(Cl)c3c(=O)[nH]nc(CN)c3c2)c1-c1c(F)ccc(OC2CC2)c1C#N (atropisomer, axis not shown; (P)) [Example 16-55, (P)-2-[4-[4-(aminomethyl)-8-chloro-1-oxo-2H-phthalazin-6-yl]-2-methyl-pyrazol-3-yl]-6-(cyclopropoxy)-3-fluoro-benzonitrile]
8 | 6.14 | – | 1000 | – | 10000 | Cn1ncc(-c2ccc3c(=O)[nH]nc(CN)c3c2)c1-c1csc2cccc(=O)n12 [Example 4-267, 3-[4-[4-(aminomethyl)-1-oxo-2H-phthalazin-6-yl]-2-methyl-pyrazol-3-yl] thiazolo[3,2-a]pyridin-5-one]
9 | 0.108 | – | 98 | – | 281 | Cn1ncc(-c2ccc3c(=O)[nH]nc(CN)c3c2)c1-c1sc2ccc(Cl)cc2c1C#N [Example 4-262, 2-[4-[4-(aminomethyl)-1-oxo-2H-phthalazin-6-yl]-2-methyl-pyrazol-3-yl]-5-chloro-benzothiophene-3-carbonitrile]
10 | 0.341 | 859 | – | 437 | – | Cn1ncc(-c2cc(Cl)c3c(=O)[nH]nc(CN)c3c2)c1-c1c(C#N)cc2ccccc2c1Cl (single isomer, unassigned) [Example 16-63, (P)-3-[4-[4-(aminomethyl)-8-chloro-1-oxo-2H-phthalazin-6-yl]-2-methyl-pyrazol-3-yl]-4-chloro-naphthalene-2-carbonitrile]
11 | 0.261 | 706 | – | 6 | – | Cc1cc(-c2cnn(C)c2-c2c(C#N)cc3ccccc3c2Cl)cc2c(CN)n[nH]c(=O)c12 (single isomer, unassigned) [Example 16-51, (P)-3-[4-[4-(aminomethyl)-8-methyl-1-oxo-2H-phthalazin-6-yl]-2-methyl-pyrazol-3-yl]-4-chloro-naphthalene-2-carbonitrile]
12 | 2.93 | – | > 1000 | – | 2870 | Cn1ncc(-c2ccc3c(=O)[nH]cc(CN)c3c2)c1-c1ccc2ccccc2c1C#N [Example 18-2, 2-[4-[4-(aminomethyl)-1-oxo-2H-isoquinolin-6-yl]-2-methyl-pyrazol-3-yl]naphthalene-1-carbonitrile]
13 | 0.0233 | 17 | – | 13 | – | Cn1ncc(-c2cc(Cl)c3c(=O)[nH]nc(CN)c3c2)c1-c1c(C#N)cc2ccccc2c1Cl (single isomer, unassigned) [Example 16-64, (M)-3-[4-[4-(aminomethyl)-8-chloro-1-oxo-2H-phthalazin-6-yl]-2-methyl-pyrazol-3-yl]-4-chloro-naphthalene-2-carbonitrile]
14 | 0.0158 | 10 | – | 3 | – | Cn1ncc(-c2ccc3c(=O)[nH]nc(CN)c3c2)c1-c1c(F)c(Cl)c2ccccc2c1C#N (single isomer, unassigned) [Example 16-10, (M)-2-[4-[4-(aminomethyl)-1-oxo-2H-phthalazin-6-yl]-2-methyl-pyrazol-3-yl]-4-chloro-3-fluoro-naphthalene-1-carbonitrile]
15 | 0.128 | 19 | – | 10 | – | Cc1cc(-c2cnn(C)c2-c2c(F)ccc(OC3CC3)c2C#N)cc2c(CN)n[nH]c(=O)c12 (atropisomer, axis not shown; (M)) [Example 16-48, (M)-2-[4-[4-(aminomethyl)-8-methyl-1-oxo-2H-phthalazin-6-yl]-2-methyl-pyrazol-3-yl]-6-(cyclopropoxy)-3-fluoro-benzonitrile]
16 | 2 | 1300 | – | 656 | – | Cc1cc(OC2CC2)c(C#N)c(-c2c(-c3cc(C)c4c(=O)[nH]nc(CN)c4c3)cnn2C)c1F (single isomer, unassigned) [Example 16-43, (P)-2-(4-(4-(aminomethyl)-8-methyl-1-oxo-1,2-dihydrophthalazin-6-yl)-1-methyl-1H-pyrazol-5-yl)-6-cyclopropoxy-3-fluoro-4-methylbenzonitrile]
17 | 0.113 | 22 | – | 9 | – | Cn1ncc(-c2cc(Cl)c3c(=O)[nH]nc(CN)c3c2)c1-c1c(F)ccc(OC2CC2)c1C#N (atropisomer, axis not shown; (M)) [Example 16-56, (M)-2-[4-[4-(aminomethyl)-8-chloro-1-oxo-2H-phthalazin-6-yl]-2-methyl-pyrazol-3-yl]-6-(cyclopropoxy)-3-fluoro-benzonitrile]
18 | 0.507 | – | 324 | – | 312 | Cn1ncc(-c2ccc3c(=O)[nH]nc(CN)c3c2)c1-c1c(C#N)sc2ccccc12 [Example 4-266, 3-[4-[4-(aminomethyl)-1-oxo-2H-phthalazin-6-yl]-2-methyl-pyrazol-3-yl]benzothiophene-2-carbonitrile]

Reference: patent US20240208912A1 (Mirati Therapeutics, Inc., priority 2021, published 2024)
